This assay addresses T1, Human M4 (Homo sapiens, UniProt P08173).
T1 construct: expressed in transfected cells
T1 sequence (P08173 1-479): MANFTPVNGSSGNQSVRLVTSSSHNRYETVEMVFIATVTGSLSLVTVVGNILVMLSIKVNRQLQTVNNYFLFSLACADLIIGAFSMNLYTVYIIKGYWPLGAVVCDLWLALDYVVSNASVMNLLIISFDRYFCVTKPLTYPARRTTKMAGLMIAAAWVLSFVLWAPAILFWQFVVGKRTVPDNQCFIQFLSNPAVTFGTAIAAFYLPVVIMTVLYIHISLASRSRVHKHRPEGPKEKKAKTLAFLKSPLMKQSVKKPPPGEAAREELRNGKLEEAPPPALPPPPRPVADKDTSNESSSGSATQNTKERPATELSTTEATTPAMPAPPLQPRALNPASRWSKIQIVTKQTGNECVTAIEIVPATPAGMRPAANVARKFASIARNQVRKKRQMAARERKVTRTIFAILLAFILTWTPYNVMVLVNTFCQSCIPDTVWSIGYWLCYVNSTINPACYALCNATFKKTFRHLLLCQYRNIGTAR
Nature of the assay: mAChR M4 cell-based functional assay (calcium flux, PAM mode). Conditions: hM4-Gqi5 CHO-K1 cells; for Emax at 30 µM: CHO-K1, % ACh maximum at 30 μM; for EC50: concentration-dependent increase in the EC20 acetylcholine response. On the procedure:
Human and rat M4 cDNAs, along with the chimeric G protein Gqi5, were transfected into Chinese hamster ovary (CHO-K1) cells purchased from the American Type Culture Collection using Lipofectamine2000. hM4-Gqi5 cells were grown in Ham's F-12 medium containing 10% heat-inactivated fetal bovine serum (FBS), 20 mM HEPES, 50 μg/mL G418 sulfate, and 500 μg/mL Hygromycin B. rM4-Gqi5 cells were grown in DMEM containing 10% heat-inactivated FBS, 20 mM HEPES, 400 μg/mL G418 sulfate, and 500 μg/mL Hygromycin B.
For high throughput measurement of agonist-evoked increases in intracellular calcium, CHO-K1 cells stably expressing muscarinic receptors were plated in growth medium lacking G418 and hygromycin at 15,000 cells/20 μL/well in Greiner 384-well black-walled, tissue culture (TC)-treated, clear-bottom plates (VWR). Cells were incubated overnight at 37° C. and 5% CO2. The next day, cells were washed using an ELX 405 (BioTek) with assay buffer; the final volume was then aspirated to 20 μL. Next, 20 μL of a 2.3 μM stock of Fluo-4/acetoxymethyl ester (Invitrogen, Carlsbad, CA), prepared as a 2.3 mM stock in DMSO and mixed in a 1:1 ratio with 10% (w/v) Pluronic F-127 and diluted in assay buffer, was added to the wells and the cell plates were incubated for 50 min at 37° C. and 5% CO2. Dye was removed by washing with the ELX 405 and the final volume was aspirated to 20 μL. Compound master plates were formatted in an 11 point concentration-response curve (CRC) format (1:3 dilutions) in 100% DMSO with a starting concentration of 10 mM using a BRAVO liquid handler (Agilent). Test compound CRCs were then transferred to daughter plates (240 nL) using the Echo acoustic plate reformatter (Labcyte, Sunnyvale, CA) and then diluted into assay buffer (40 μL) to a 2× stock using a Thermo Fisher Combi (Thermo Fisher Scientific, Waltham, MA).
Calcium flux was measured using the Functional Drug Screening System (FDSS) 6000 or 7000 (Hamamatsu Corporation, Tokyo, Japan) as an increase in the fluorescent static ratio. Compounds were applied to cells (20 μL, 2×) using the automated system of the FDSS at 2-4 seconds into the protocol and the data were collected at 1 Hz. At 144 seconds, 10 μL of an EC20 concentration of the muscarinic receptor agonist acetylcholine was added (5×), followed by the addition of 12 μL of an EC80 concentration of acetylcholine at the 230 second time point (5×). Agonist activity was analyzed as a concentration-dependent increase in calcium mobilization upon compound addition. Positive allosteric modulator activity was analyzed as a concentration-dependent increase in the EC20 acetylcholine response. Antagonist activity was analyzed as a concentration-dependent decrease in the EC80 acetylcholine response. Concentration-response curves were generated using a four-parameter logistical equation in XLFit curve fitting software (IDBS, Bridgewater, NJ) for Excel (Microsoft, Redmond, WA) or Prism (GraphPad Software, Inc., San Diego, CA).
Compounds were synthesized as described above. Activity (EC50 and Emax) was determined in the mAChR M4 cell-based functional assay as described above and the data are shown in Table 2. The compound number corresponds to the compound numbers used in Examples 1 to 11 and Tables 1.

Take `Cc1cc2ncc(Cl)c(=O)n2nc1N1CCC(Oc2ccc3c(c2)OCCO3)CC1` [Compound 31, 3-chloro-7-(4-((2,3-dihydrobenzo[b][1,4]dioxin-6-yl)oxy)piperidin-1-yl)-8-methyl-4H-pyrimido[1,2-b]pyridazin-4-one]: the Emax at 30 µM is 82% and the EC50 came out at 32 nM.

In the case of `Cc1cc2nccc(=O)n2nc1N1CC[C@@H](Oc2ccc3c(c2)OCCO3)[C@H](F)C1` [Compound 32, 7-((3R,4R)-4-((2,3-dihydrobenzo[b][1,4]dioxin-6-yl)oxy)-3-fluoropiperidin-1-yl)-8-methyl-4H-pyrimido[1,2-b]pyridazin-4-one], the Emax at 30 µM amounted to 81% and the EC50 is 147 nM.

With `Cc1cc(=O)n2nc(N3CC[C@@H](Oc4ccc5c(c4)OCCO5)[C@@H](F)C3)c(C)cc2n1` [Compound 33, 7-((3S,4R)-4-((2,3-dihydrobenzo[b][1,4]dioxin-6-yl)oxy)-3-fluoropiperidin-1-yl)-2,8-dimethyl-4H-pyrimido[1,2-b]pyridazin-4-one], the Emax at 30 µM amounted to 117% and the EC50 worked out at 40 nM.

For `Cc1cc2nccc(=O)n2nc1N1CC[C@@H](Oc2ccc3c(c2)OCCO3)[C@@H](F)C1` [Compound 34, 7-((3S,4R)-4-((2,3-dihydrobenzo[b][1,4]dioxin-6-yl)oxy)-3-fluoropiperidin-1-yl)-8-methyl-4H-pyrimido[1,2-b]pyridazin-4-one], the Emax at 30 µM amounted to 116% and the EC50 was 70 nM.

In the case of `[2H]C1([2H])Oc2ccc(OC3CCN(c4nn5c(=O)c(N6CCC6)cnc5cc4C)CC3)cc2OC1([2H])[2H]` [Compound 35, 3-(azetidin-1-yl)-7-(4-((2,3-dihydrobenzo[b][1,4]dioxin-6-yl-2,2,3,3-d4)oxy)piperidin-1-yl)-8-methyl-4H-pyrimido[1,2-b]pyridazin-4-one], the Emax at 30 µM worked out at 114% and the EC50 stood at 153 nM.

With `Cc1cc2nc(C)c(F)c(=O)n2nc1N1CC[C@@H](Oc2ccc3c(c2)OCCO3)[C@H](F)C1` [Compound 36, 7-((3R,4R)-4-((2,3-dihydrobenzo[b][1,4]dioxin-6-yl)oxy)-3-fluoropiperidin-1-yl)-3-fluoro-2,8-dimethyl-4H-pyrimido[1,2-b]pyridazin-4-one], the Emax at 30 µM was determined as 116% and the EC50 was 40 nM.

With `Cc1cc2nc(C)c(F)c(=O)n2nc1N1CC[C@H](Oc2ccc3c(c2)OCCO3)[C@@H](F)C1` [Compound 37, 7-((3S,4S)-4-((2,3-dihydrobenzo[b][1,4]dioxin-6-yl)oxy)-3-fluoropiperidin-1-yl)-3-fluoro-2,8-dimethyl-4H-pyrimido[1,2-b]pyridazin-4-one], the Emax at 30 µM was 105% and the EC50 is 134 nM.

With `[2H]C1([2H])Oc2ccc(O[C@H]3CCN(c4nn5c(=O)c(F)c(C)nc5cc4C)C[C@@H]3F)cc2OC1([2H])[2H]` [Compound 38, 7-((3S,4S)-4-((2,3-dihydrobenzo[b][1,4]dioxin-6-yl-2,2,3,3-d4)oxy)-3-fluoropiperidin-1-yl)-3-fluoro-2,8-dimethyl-4H-pyrimido[1,2-b]pyridazin-4-one], the Emax at 30 µM stood at 107% and the 50% effective concentration (EC50) is 211 nM.

On to `[2H]C1(Oc2ccc3c(c2)OC([2H])([2H])C([2H])([2H])O3)CCN(c2nn3c(=O)ccnc3cc2C)CC1` [Compound 39, 7-(4-((2,3-dihydrobenzo[b][1,4]dioxin-6-yl-2,2,3,3-d4)oxy)piperidin-1-yl-4-d)-8-methyl-4H-pyrimido[1,2-b]pyridazin-4-one], for which the maximum response (Emax) at 30 µM was 111% and the EC50 is 115 nM.

For the compound `[2H]C1(Oc2ccc3c(c2)OC([2H])([2H])C([2H])([2H])O3)CCN(c2nn3c(=O)cc(C)nc3cc2C)CC1` [Compound 40, 7-(4-((2,3-dihydrobenzo[b][1,4]dioxin-6-yl-2,2,3,3-d4)oxy)piperidin-1-yl-4-d)-2,8-dimethyl-4H-pyrimido[1,2-b]pyridazin-4-one], the Emax at 30 µM came to 118% and the EC50 was determined as 60 nM.

For the compound `[2H]C1([2H])Oc2ccc(O[C@@H]3CCN(c4nn5c(=O)ccnc5cc4C)C[C@H]3F)cc2OC1([2H])[2H]` [Compound 41, 7-((3R,4R)-4-((2,3-dihydrobenzo[b][1,4]dioxin-6-yl-2,2,3,3-d4)oxy)-3-fluoropiperidin-1-yl)-8-methyl-4H-pyrimido[1,2-b]pyridazin-4-one], the Emax at 30 µM is 114% and the half-maximal effective concentration (EC50) turned out to be 159 nM.

For the compound `[2H]C1([2H])Oc2ccc(O[C@H]3CCN(c4nn5c(=O)ccnc5cc4C)C[C@@H]3F)cc2OC1([2H])[2H]` [Compound 42, 7-((3S,4S)-4-((2,3-dihydrobenzo[b][1,4]dioxin-6-yl-2,2,3,3-d4)oxy)-3-fluoropiperidin-1-yl)-8-methyl-4H-pyrimido[1,2-b]pyridazin-4-one], the Emax at 30 µM was 105% and the EC50 was determined as 52 nM.

With `Cc1cc2nccc(=O)n2nc1N1CC[C@H](Oc2ccc3c(c2)OCCO3)[C@H](F)C1` [Compound 43, 7-((3R,4S)-4-((2,3-dihydrobenzo[b][1,4]dioxin-6-yl)oxy)-3-fluoropiperidin-1-yl)-8-methyl-4H-pyrimido[1,2-b]pyridazin-4-one], the Emax at 30 µM is 69% and the EC50 is 171 nM.

Regarding `Cc1cc(=O)n2nc(N3CC[C@H](Oc4ccc5c(c4)OCCO5)[C@H](F)C3)c(C)cc2n1` [Compound 44, 7-((3R,4S)-4-((2,3-dihydrobenzo[b][1,4]dioxin-6-yl)oxy)-3-fluoropiperidin-1-yl)-2,8-dimethyl-4H-pyrimido[1,2-b]pyridazin-4-one], the Emax at 30 µM was 79% and the EC50 was 224 nM.

In the case of `[2H]C1(Oc2ccc3c(c2)OC([2H])([2H])C([2H])([2H])O3)CCN(c2nn3c(=O)cc(C(F)(F)F)nc3cc2C)CC1` [Compound 45, 7-(4-((2,3-dihydrobenzo[b][1,4]dioxin-6-yl-2,2,3,3-d4)oxy)piperidin-1-yl-4-d)-8-methyl-2-(trifluoromethyl)-4H-pyrimido[1,2-b]pyridazin-4-one], the Emax at 30 µM was determined as 77% and the EC50 is 26 nM.

On to `[2H]C1(Oc2ccc3c(c2)OC([2H])([2H])C([2H])([2H])O3)CCN(c2nn3c(=O)c(F)c(C)nc3cc2C)CC1` [Compound 46, 7-(4-((2,3-dihydrobenzo[b][1,4]dioxin-6-yl-2,2,3,3-d4)oxy)piperidin-1-yl-4-d)-3-fluoro-2,8-dimethyl-4H-pyrimido[1,2-b]pyridazin-4-one], for which the Emax at 30 µM was 81% and the half-maximal effective concentration (EC50) came out at 22 nM.

Take `[2H]C1(Oc2ccc3c(c2)OC([2H])([2H])C([2H])([2H])O3)CCN(c2nn3c(=O)c(C)c(C)nc3cc2C)CC1` [Compound 47, 7-(4-((2,3-dihydrobenzo[b][1,4]dioxin-6-yl-2,2,3,3-d4)oxy)piperidin-1-yl-4-d)-2,3,8-trimethyl-4H-pyrimido[1,2-b]pyridazin-4-one]: the Emax at 30 µM worked out at 81% and the EC50 stood at 51 nM.

For the compound `[2H]C1(Oc2ccc3c(c2)OCCO3)CCN(c2nn3c(=O)ccnc3cc2C)CC1` [Compound 48, 7-(4-((2,3-dihydrobenzo[b][1,4]dioxin-6-yl)oxy)piperidin-1-yl-4-d)-8-methyl-4H-pyrimido[1,2-b]pyridazin-4-one], the Emax at 30 µM worked out at 91% and the EC50 worked out at 46 nM.

Values taken from US11884676B2, “Substituted pyrimido[1,2-b]pyridazines as positive allosteric modulators of the muscarinic acetylcholine receptor M4” (Vanderbilt University, priority 2020, dated 2024).
